# Measured values taken from ChEMBL document CHEMBL4808216, “Gut-Restricted Selective Cyclooxygenase-2 (COX-2) Inhibitors for Chemoprevention of Colorectal Cancer” (J Med Chem, 2021).
# pIC50, pKi: −log10 of the molar value.
# Columns and labels:
# [1] = target: T1, Prostaglandin G/H synthase 1 (Homo sapiens, UniProt P23219); test: Inhibition of human recombinant COX-1 assessed as reduction in peroxidase activity using arachidonic acid as substrate preincubated for 60 mins followed by substrate addition for 2 secs by ADPH based fluorometric analysis; format: ADME
# [2] = target: T2, Prostaglandin G/H synthase 2 (Homo sapiens, UniProt P35354); test: Inhibition of human recombinant COX-2 assessed as reduction in peroxidase activity using arachidonic acid as substrate preincubated for 60 mins followed by substrate addition for 2 secs by ADPH based fluorometric analysis
# T2 sequence (P35354 whole entry): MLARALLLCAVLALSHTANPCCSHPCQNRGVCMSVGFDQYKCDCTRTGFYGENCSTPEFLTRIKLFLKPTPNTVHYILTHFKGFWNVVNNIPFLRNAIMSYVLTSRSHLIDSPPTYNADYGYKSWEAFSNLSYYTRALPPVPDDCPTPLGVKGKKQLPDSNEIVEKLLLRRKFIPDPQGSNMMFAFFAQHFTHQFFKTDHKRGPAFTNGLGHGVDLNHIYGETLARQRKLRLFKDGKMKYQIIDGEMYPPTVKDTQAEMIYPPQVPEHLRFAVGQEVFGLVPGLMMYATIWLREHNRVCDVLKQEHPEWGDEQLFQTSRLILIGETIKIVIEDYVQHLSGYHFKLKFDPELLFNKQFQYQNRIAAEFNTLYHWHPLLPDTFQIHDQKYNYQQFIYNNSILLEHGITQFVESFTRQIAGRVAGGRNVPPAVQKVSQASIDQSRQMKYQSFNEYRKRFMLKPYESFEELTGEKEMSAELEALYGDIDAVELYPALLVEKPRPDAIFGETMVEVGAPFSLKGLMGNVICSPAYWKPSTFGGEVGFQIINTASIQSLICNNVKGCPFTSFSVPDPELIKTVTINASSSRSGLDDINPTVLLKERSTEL
# [3] = Half life in human liver microsomes; format: ADME, Microsome
# [4] = Half life in mouse liver microsomes; format: ADME, Microsome
# [5] = Half life in mouse hepatocytes; format: ADME, cell-based, Hepatocyte
# [6] = Clearance in C57BL/6J mouse at 2 mg/kg, iv measured after 0.08 to 24 hrs; format: ADME, organism-based; conditions: in vivo, time 0.08-24 hrs
# [7] = Volume of distribution at steady state in C57BL/6J mouse at 2 mg/kg, iv measured after 0.08 to 24 hrs; format: ADME, organism-based; conditions: C57BL/6J, in vivo, time 0.08-24 hrs, read-out: Vdss
# [8] = Drug concentration in C57BL/6J mouse colon at 10 mg/kg, po administered as cassette dose measured at 4 hrs by LC/MS/MS analysis; format: ADME, organism-based; conditions: read-out: Ct
# [9] = Drug concentration in C57BL/6J mouse plasma at 10 mg/kg, po administered as cassette dose measured at 4 hrs by LC/MS/MS analysis; format: ADME, organism-based
# [10] = Ratio of drug concentration in C57BL/6J mouse colon to plasma at 10 mg/kg, po measured after 4 hr by liquid chromatographic triple-quadrupole mass spectrometric method; format: ADME, organism-based; conditions: C57BL/6J, colon / plasma
# [11] = Tmax in C57BL/6J mouse at 10 mg/kg, po administered as cassette dose measured at 4 hrs by liquid chromatographic triple-quadrupole mass spectrometric method; format: ADME, organism-based; conditions: in vivo
# [12] = target: T2, Prostaglandin G/H synthase 2; test: Inhibition of human recombinant COX-2 using arachidonic acid as substrate preincubated for 60 mins followed by substrate addition for 2 secs by ADPH based fluorometric analysis
# [13] = target: T2, Prostaglandin G/H synthase 2; test: Inhibition of COX2 in human whole blood assessed as reduction in LPS stimulated PGE2 production incubated for 1 hr by ELISA; format: tissue-based
# [14] = target: T1, Prostaglandin G/H synthase 1; test: Inhibition of COX1 in human whole blood assessed as reduction in calcium ionophore-stimulated TXB2 production incubated for 1 hr by ELISA; format: tissue-based
# [15] = Protein binding in human plasma assessed as unbound fraction; format: ADME, cell-free
# [16] = Protein binding in human colon assessed as unbound fraction; format: ADME, tissue-based
# [17] = Equilibrium solubility of compound in FASSIF at pH 6.5; format: physicochemical
# Mus musculus [18] = test: Antitumor activity in C57BL/6J mouse model of spontaneous GI-tract tumor Apc-min assessed as mouse survival at 30 mg/kg, po administered daily as suspension and measured at day 82 by Kaplan-Meier method; format: functional
# [19] = Oral bioavailability in Sprague Dawley rat at 10 mg/kg measured up to 24 hrs by LC-MS analysis; format: ADME, organism-based; conditions: in vivo
# [20] = Oral bioavailability in Cynomolgus monkey at 10 mg/kg measured up to 24 hrs by LC-MS analysis; format: ADME, organism-based, Macaca fascicularis; conditions: in vivo
# [21] = Oral bioavailability in dog at 10 mg/kg measured up to 24 hrs by LC-MS analysis; format: ADME, organism-based, Canis lupus familiaris; conditions: in vivo
# [22] = target: T3, Prostaglandin G/H synthase 2 (Mus musculus, UniProt Q05769); test: In vivo inhibition of COX2 in po dosed C57BL/6J mouse model of spontaneous GI-tract tumor Apc-min assessed as chemopreventive effect by measuring reduction in polyp area and relevant plasma exposures; format: functional, organism-based
# T3 sequence (Q05769 whole entry): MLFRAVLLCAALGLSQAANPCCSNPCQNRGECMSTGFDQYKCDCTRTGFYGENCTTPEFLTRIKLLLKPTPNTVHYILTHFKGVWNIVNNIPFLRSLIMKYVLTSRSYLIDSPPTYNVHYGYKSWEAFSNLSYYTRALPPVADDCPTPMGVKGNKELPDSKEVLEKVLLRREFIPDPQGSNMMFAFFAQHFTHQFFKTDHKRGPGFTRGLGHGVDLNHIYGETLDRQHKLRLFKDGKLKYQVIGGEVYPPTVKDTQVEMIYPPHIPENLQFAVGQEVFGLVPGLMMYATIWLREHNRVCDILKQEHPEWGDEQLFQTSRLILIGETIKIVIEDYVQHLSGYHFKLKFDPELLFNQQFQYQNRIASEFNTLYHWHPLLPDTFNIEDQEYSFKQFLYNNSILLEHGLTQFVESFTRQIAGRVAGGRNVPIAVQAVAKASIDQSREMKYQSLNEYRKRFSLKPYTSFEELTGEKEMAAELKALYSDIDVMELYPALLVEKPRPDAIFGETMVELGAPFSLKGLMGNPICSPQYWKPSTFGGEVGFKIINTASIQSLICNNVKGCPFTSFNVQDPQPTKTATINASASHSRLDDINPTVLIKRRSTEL
# [23] = target: T3, Prostaglandin G/H synthase 2; test: In vivo inhibition of COX2 in po dosed C57BL/6J mouse model of spontaneous GI-tract tumor Apc-min assessed as chemopreventive effect by measuring reduction in polyp area and relevant ileum exposures; format: functional, organism-based
# Mus musculus [24] = test: Antitumor activity in po dosed C57BL/6J mouse model of spontaneous GI-tract tumor Apc-min assessed as reduction in total ileum polyp area administered as suspension for 10 to 12 weeks; format: functional, organism-based; conditions: time 10-12 weeks
# [25] = target: T4, Prostaglandin G/H synthase 2 (Homo sapiens) (UniProt P35354)
# T4 sequence (whole entry): T2 sequence (P35354 whole entry)
# Description: Protein occupancy at human recombinant COX-2 assessed as dissociation half life
# in vivo = conditions: C57BL/6J, mouse, colon / portal vein plasma, po, 10 mg/kg
# Description: Ratio of drug concentration in C57BL/6J mouse colon to portal vein plasma at 10 mg/kg, po measured after 4 hr by liquid chromatographic triple-quadrupole mass spectrometric method
# T1 sequence (P23219 whole entry): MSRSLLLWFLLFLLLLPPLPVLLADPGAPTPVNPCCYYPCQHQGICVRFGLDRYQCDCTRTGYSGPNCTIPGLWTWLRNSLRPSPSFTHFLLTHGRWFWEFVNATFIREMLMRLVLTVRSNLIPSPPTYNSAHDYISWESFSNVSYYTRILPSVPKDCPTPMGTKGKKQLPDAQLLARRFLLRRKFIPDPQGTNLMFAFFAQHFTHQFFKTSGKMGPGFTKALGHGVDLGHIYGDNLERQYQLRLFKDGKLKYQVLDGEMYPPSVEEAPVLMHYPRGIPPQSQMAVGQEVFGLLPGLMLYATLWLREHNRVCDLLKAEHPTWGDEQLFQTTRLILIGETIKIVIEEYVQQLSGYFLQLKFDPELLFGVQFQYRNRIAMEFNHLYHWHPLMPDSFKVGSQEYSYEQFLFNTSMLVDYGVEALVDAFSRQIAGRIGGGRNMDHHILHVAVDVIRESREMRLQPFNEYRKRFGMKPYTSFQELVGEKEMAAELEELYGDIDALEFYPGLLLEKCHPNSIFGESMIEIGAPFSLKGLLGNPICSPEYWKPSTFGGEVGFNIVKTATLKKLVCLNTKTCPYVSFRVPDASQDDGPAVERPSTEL
smiles,measurement,setting,value
CCCOc1nc(OCC(C)(C)O)c(-c2ccc(S(C)(=O)=O)cc2)cc1CO,pIC50,[1],< 4.30
same,pIC50,[2],6.08
same,half-life,[3],> 184 min
same,half-life,[4],19.6 min
same,half-life,[5],3 min
same,clearance,[6],92.7 mL/min/kg
same,Vd,[7],3.05 L/kg
same,concentration at 4 h,[8],5340 ng/g
same,concentration at 4 h,[9],5.7 ng/mL
same,Kp at 4 h,[10],1280
same,Tmax,[11],15 min
same,pKi,[12],6.94
same,pIC50,[13],5.63
same,pIC50,[14],3.71
same,fraction unbound,[15],0.016
same,fraction unbound,[16],0.066
same,solubility thermodynamic,[17],25 µM
same,Survival,Mus musculus [18],>82 days
same,bioavailability,[19],2.3%
same,bioavailability,[20],20%
same,bioavailability,[21],79.5%
same,pIC50,[22],7.46
same,pIC50,[23],5.62
same,Activity,Mus musculus [24],Dose-Dependent Effect
same,T1/2,[25],534 min
same,Kp at 4 h,in vivo,38
